2 compounds from US10821079B2, “PKC activators and combinations thereof” (Cognitive Research Enterprises, Inc., priority 2011, dated 2020) can be followed below.

The test system of series [1] is primary human cortical neurons. As to the kind of experiment: Long-term culture of human primary cortical neurons (40 days). It is filed as cell-based. The protocol: More specifically, human primary cortical neurons were grown in Neuronal Medium (ScienCell Cat No #1521) containing neuronal growth supplement (NGS) (Sciencell Cat No #1562).
Cells were plated on poly-l-lysine (0.001%) coated plates at a density of >10000 cells/cm2. Half of the media was replaced by new media every 3 days. DCPLA-ME or Bryostatin was dissolved in 100% ethanol and added at final concentration (100 nM for DCPLA-ME, 0.27 nM for Bryostatin). Fresh DCPLA-ME (100 nM) or Bryostatin (0.27 nM) was added every 3 days during media change. The experiments were continued for 40 days.
Human primary neurons (ScienCell Research Laboratories, USA) were thawed and plated on poly-L-lysine coated plates at a density of 10,000 cells per cm^2 and were maintained in neuronal medium (DMEM+high glucose+neuronal growth supplement, ScienCell Research Laboratories, USA) following the recommended method. Primary human neurons were then treated with either DCPLA-ME (100 nM) or bryostatin 1 (0.27 nM) for 40 days. Fresh drug was added every third day with 50% media change.

The test system of series [2] is primary rat hippocampal neurons. Nature of the series: Neuroprotection against ASPD induced toxicity, MTT, primary neurons. The format is cell-based. The protocol: Viability of cells was measured by MTT assay. MTT (3-(4,5-Dimethylthiazol-2-yl)-2,5-diphenyltetrazolium bromide) is a tetrazolium salt that is cleaved to formazan by the succinate dehydrogenase, which is only active in viable cells. After solubilization of the formazan, the amount of dye can be quantified with a microplate reader at 570 nm along with a reference of 630 nm. For MTT assay, 5×104 primary rat hippocampal neurons from 18-day-old embryonic Sprague-Dawley rat brains were plated on each well of 24-well plates coated with poly-D-lysine. After treatment, the cells were washed with 1×PBS and were incubated with 200 μl of 1 mg/ml MTT solution (Sigma, USA) at 37° C. for 2 hr. Then the MTT-solution was removed and the cells were lysed with 200 μl isopropanol containing 0.04 M HCl and 160 mM NaOH for 10 min. Finally, the reading was done at 570 nm and 630 nm. All the samples were done in triplicates and the data was represented as the percentage of control.
All studies used 50 nM ASPDs. The viability of the cells were measured by the MTT assay.

The structures appear in SMILES notation.

With `CCCCCC1CC1CC1CC1CCCCCCCC(=O)OC` (stereo not shown) [DCPLA-ME, methyl 8-(2-((2-pentylcyclopropyl)methyl)cyclopropyl)octanoate], in series [1] (100 nM), the “fractal dimension (neuritic branching)” value is 1.40±0.03; the “number of colocalized puncta of synaptophysin and PSD-95” value is recorded as 230 % of control; the “number of synapses (in words)” value is reported as “significantly increased”. The neurite-positive cells/field in series [1] (100 nM, 40 days) stood at 360±45 cells/field. Moreover, the “expression levels of PKCε, PSD-95 and synaptophysin (in words)” value in series [1] (compared to control or bryostatin 1-treated cells, 40 days) is listed as “significantly higher”.
`CCC/C=C/C=C/C(=O)O[C@H]1/C(=C/C(=O)OC)C[C@H]2C[C@H]([C@@H](C)O)OC(=O)C[C@H](O)C[C@@H]3C[C@H](OC(C)=O)C(C)(C)C(O)(C[C@@H]4C/C(=C/C(=O)OC)C[C@H](/C=C/C(C)(C)[C@]1(O)O2)O4)O3` [Bryostatin-1]: in series [2] (50 nM ASPDs alone (ASPD) or with the treatment named, 24 hr), the “viability (Example 25)” value was 71.38%±2.34. For the same compound, the viability (in general, a per cent measure of how many cells are alive, often set against a control) at 0.00027 µM in series [2] (Rattus norvegicus, Hippocampal neuron, 20 h, read-out: viability restored in ASPD-treated primary neurons) was found to be 73.2 ± 3.6%.
